Patent US6903132B2, “Non-peptide GnRH agents, pharmaceutical compositions and methods for their use” (Agouron Pharmaceuticals, Inc., priority 2002, dated 2005)

Legend:
rat GnRH receptor = biological target: T1, rat GnRH receptor (Rattus norvegicus, UniProt P30969); assay: Radioligand binding assay: inhibition of binding of 125I-GnRH-A to GnRH receptors (membranes); settings: competition with 125I-GnRH-A, Ki calculated from IC50 (Cheng et al.)
T1 construct: rat pituitaries (Pel Freez Biologicals, Rogers, Ark.) are homogenized in buffer A; tissue Pel Freez Biologicals; host or cells: rat pituitaries
T1 sequence (P30969 1-327): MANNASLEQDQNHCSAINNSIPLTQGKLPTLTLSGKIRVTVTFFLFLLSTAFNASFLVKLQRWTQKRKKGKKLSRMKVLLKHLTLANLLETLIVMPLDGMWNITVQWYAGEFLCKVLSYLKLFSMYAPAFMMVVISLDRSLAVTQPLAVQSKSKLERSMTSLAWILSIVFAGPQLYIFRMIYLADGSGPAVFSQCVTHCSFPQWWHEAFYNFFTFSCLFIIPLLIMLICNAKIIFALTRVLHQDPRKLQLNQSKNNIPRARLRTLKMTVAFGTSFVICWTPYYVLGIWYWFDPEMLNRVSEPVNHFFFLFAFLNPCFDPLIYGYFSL
Method: (§1) HEK 293 cells stably transfected with mouse or human GnRH receptors as described above are grown in Dulbecco's high-glucose, modified Eagle's medium (DMEM) supplemented with 0.2% G418, 10% fetal bovine serum (FBS) and 100U/mL penicillin/streptomycin. GH3 cells stably transfected with the rat GnRH receptor (GGH3) were provided by Dr. William Chin (Harvard Medical School, Boston, Mass.). These cells are extensively characterized previously (Kaiser et al., 1997). The cells are grown in low glucose DMEM containing: 100U/mL penicillin/streptomycin, 0.6% G418 and 10% heat-inactivated FBS.
(§2) HEK 293 cells containing mouse or human receptors, or rat pituitaries (Pel Freez Biologicals, Rogers, Ark.) are homogenized in buffer A containing: 50 mM Tris (pH 7.4), 0.32 M sucrose, 2 mM EGTA, 1 mM PMSF, 5 μg/ml aprotinen, 5 μg/ml Pepstatin A, and 1 μg/ml leupeptin. Homogenized cells are centrifuged at 4° C. at 20,000×g for 25 minutes, re-suspended in buffer A and re-centrifuged at 4° C. at 20,000×g for an additional 25 minutes. Total membrane protein was determined with a BCA kit (Pierce, Rockford, Ill.). Membranes are stored at −70° C. at a final membrane protein concentration of approximately 5 mg/ml.
(§3) The radioiodinated agonist analog of GnRH, [des-Gly^10, D-Ala^6]GnRH ethylamide (^125I-GnRH-A), is used as the radioligand. One μg of GnRH-A diluted in 0.5 M phosphate buffer (pH 7.4) is added to an lodogen®-coated borosilicate glass tube (Pierce, Rockford, Ill.) containing 35 μl of 0.05 M phosphate buffer (pH 7.4-7.6) and 1 mCi of Na[^125I]. The reaction mixture is vortexed and incubated for 1 minute at room temperature. After one minute, the mixture is vortexed and allowed to incubate for an additional minute. 2 ml of 0.5 M acetic acid/1% BSA is added to the reaction tube and the mixture is added to a C18 Sep-Pak cartridge. The cartridge is washed with subsequent washes of 5 ml H2O and 5 ml 0.5 M acetic acid and then eluted with 5×1 ml of 60%CH3CN/40% 0.5 M acetic acid. The eluate is diluted with 3× volume of HPLC buffer A (0.1% TFA in H2O) and loaded onto a C18 column. The iodinated product is eluted over 20-25 min with a gradient of 25-100% CH3CN containing 0.1% TFA. The radioactive fractions (750 μl/fraction) are collected into clean polypropylene tubes containing 100 μl of 10% BSA. Fractions are assessed for biological activity by radiolig and binding. Specific activity of the radioligand was approximately 2200 Ci/mmol.
(§4) Membranes are diluted to 0.01-0.5 mg/ml (depending upon the species of receptor) with assay buffer containing 50 mM HEPES (pH 7.4), 1 mM EDTA, 2.5 mM MgCl2, and 0.1% BSA. Membranes (diluted to utilize similar receptor numbers between assays) are incubated with approximately 0.04-0.06 nM ^125I-GnRH-A in the presence or absence of competing agents (0.1-10,000 nM) in a total volume of 200 μl in 96-well polypropylene plates for 1 hour at room temperature. Assays are stopped by rapid filtration onto 96-well GF/C filters soaked in 0.1% polyethylenimine (PEI) utilizing a Packard 96-well cell harvester. Filters are washed three times with ice-cold PBS (50 mM NaPO4, 0.9% NaCl, 2 mM MgCl2, and 0.02% NaN3, pH 7.4). 35 μl of scintillation cocktail is added to each filter well and filters are counted on a Packard Topcount. Control dose-response curves are generated to GnRH (0.1 nM-100 nM) in each competition binding experiment. Ki values were calculated from IC50 values according to Cheng et al., Biochemical Pharmacol. 22: 3099-3108, 1973. [formula]

human GnRH receptors = biological target: T2, human GnRH receptors (Homo sapiens, UniProt P30968); assay: as above; settings: Human GnRH receptor; competition with 125I-GnRH-A; Ki calculated from IC50 (Cheng et al.)
T2 construct: expressed in transfected cells; host or cells: HEK 293
T2 sequence (P30968 1-328): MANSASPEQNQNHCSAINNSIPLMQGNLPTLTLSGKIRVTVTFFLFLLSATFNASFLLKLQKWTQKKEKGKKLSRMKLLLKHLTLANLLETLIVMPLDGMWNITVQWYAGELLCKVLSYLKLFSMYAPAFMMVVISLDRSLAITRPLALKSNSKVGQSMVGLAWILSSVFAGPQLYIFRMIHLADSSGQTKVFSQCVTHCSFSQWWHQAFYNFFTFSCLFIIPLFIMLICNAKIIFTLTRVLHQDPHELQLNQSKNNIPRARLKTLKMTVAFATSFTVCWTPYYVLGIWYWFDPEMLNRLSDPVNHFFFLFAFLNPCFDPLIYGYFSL
Method: as §1, §2, §3, §4

| Structure (SMILES) | Ki (rat GnRH receptor) [nM] | Ki (human GnRH receptors) [nM] |
| --- | --- | --- |
| Cc1cc2c(cc1Cc1ccc(C(=O)NNc3ncc(C(F)(F)F)cc3Cl)o1)C(C)(C)OC2(C)C [Example E3, N′-[3-chloro-5-(trifluoromethyl)pyridin-2-yl]-5-[(1,1,3,3,6-pentamethyl-1,3-dihydro-2-benzofuran-5-yl)methyl]-2-furohydrazide] | 91 | 840 |
| Cc1cc2c(cc1Cc1ccc(C(=O)NNc3ccc4ccccc4n3)o1)C(C)(C)OC2(C)C [Example E4, 5-(1,1,3,3,6-Pentamethyl-1,3-dihydro-isobenzofuran-5-ylmethyl)-furan-2-carboxylic acid N′-quinolin-2-yl-hydrazide] | 23 | 24 |
| Cc1cc2c(cc1Oc1ccc(C(=O)NNc3ncnc4scc(C)c34)o1)C(C)(C)CC(C)C2(C)C (stereo not shown) [Example I15, 5-(3,5,5,6,8,8-Hexamethyl-5,6,7,8-tetrahydro-naphthalen-2-yloxy)-furan-2-carboxylic acid N′-(5-methyl-thieno[2,3-d]pyrimidin-4-yI)-hydrazide] | 19 | 7.2 |
| Cc1ccc(N(C)NC(=O)c2ccc(Oc3cc4c(cc3C)C(C)(C)C(C)CC4(C)C)o2)nn1 (stereo not shown) [Example I16, 5-(3,5,5,6,8,8-Hexamethyl-5,6,7,8-etrahydro-naphthalen-2-yloxy)-furan-2-carboxylic acid N′-methyl-N′-(6-methyl-pyridazin-3-yl)-hydrazide] | 18 | 9 |
| Cc1cccc(C)c1SCc1ccc(C(=O)NNc2cc(C)c3c(C)nn(C)c3n2)o1 [Example J25, 5-{[(2,6-dimethylphenyl)sulfanyl]methyl}-N′-(1,3,4-trimethyl-1H-pyrazolo[3,4-b]pyridin-6-yl)-2-furohydrazide] |  | 1670 |
| Cc1c(C)c(Cc2ccc(C(=O)NNc3cc(C)c4c(C)nn(C)c4n3)o2)c(C)c(Cc2ccc(C(=O)NNc3cc(C)c4c(C)nn(C)c4n3)o2)c1C [Example J29, 3-(2,3,4,6-Tetramethyl-5-{5-[N′-(1,3,4-trimethyl-1H-pyrazolo[3,4-b]pyridin-6-yl)-hydrazinocarbonyl]-furan-2-ylmethyl}-benzyl)-furan-1-carboxylic acid N′-(1,3,4-trimethyl-1H-pyrazolo[3,4-b]pyridin-6-yl)-hydrazide] |  | 5230 |
| COc1c(Cl)c(C)c(Cl)c(C)c1Cc1ccc(C(=O)NNc2cc(C)c3c(C)nn(C)c3n2)o1 [Example J30, 5-(3,5-Dichloro-2-methoxy-4,6-dimethyl-benzyl)-furan-2-carboxylic acid N′-(1,3,4-trimethyl-1H-pyrazolo[3,4-b]pyridin-6-yl)-hydrazide] |  | 480 |

Next, values leading:

| Ki (rat GnRH receptor) [nM] | Ki (human GnRH receptors) [nM] | Structure (SMILES) |
| --- | --- | --- |
|  | 4430 | Cc1nc2ccccc2c(Cl)c1Cc1ccc(C(=O)NNc2cc(C)c3c(C)nn(C)c3n2)o1 [Example K1, 5-(4-Chloro-2-methyl-quinolin-3-ylmethyl)-furan-2-carboxylic acid N′-(1,3,4-trimethyl-1H-pyrazolo[3,4-b]pyridin-6-yl)-hydrazide] |
|  | 2110 | Cc1cc(NNC(=O)c2ccc(Oc3cc4c(cc3Cl)NC(=O)CC4(C)C)o2)nc2c1c(C)nn2C [Example L1] |
|  | 5020 | Cc1cc(NNC(=O)c2ccc(Oc3cc4c(cc3Cl)N(C)C(=O)CC4(C)C)o2)nc2c1c(C)nn2C [Example L2, 5-(7-Chloro-1,4,4-trimethyl-2-oxo-1,2,3,4-tetrahydro-quinolin-6-yloxy)-furan-2-carboxylic acid N′-(1,3,4-trimethyl-1H-pyrazolo[3,4-b]pyridin-6-yl)-hydrazide] |
|  | 1140 | Cc1cc2c(cc1Oc1ccc(C(=O)NNc3ncc(C(F)(F)F)cc3Cl)o1)C(C)(C)OC2 [Example N1, 5-(3,3,6-Trimethyl-1,3-dihydro-isobenzofuran-5-yloxy)-furan-2-carboxylic acid N′-(chloro-trifluoromethyl-pyridin-2-yl)-hydrazide] |
|  | 1500 | Cc1cc2c(cc1Oc1ccc(C(=O)NNc3ccc(C(F)(F)F)cn3)o1)C(C)(C)OC2 [Example N4, 5-(3,3,6-Trimethyl-1,3-dihydro-isobenzofuran-5-yloxy)-furan-2-carboxylic acid N′-(5-trifluoromethyl-pyridin-2-yl)-hydrazide] |
